The numbers were not newly measured in patent publication US9388155B1, “Coumarin derivatives for cancer therapy” (Wellesley College, priority 2013, dated 2016), which cites them from elsewhere.

For the data set, the system named is pancreatic cancer cell line PANC-1. The conditions noted are these: PANC-1, nutrient starvation conditions, within 24 hours.

For the compound `CC(C)(OC(=O)C=Cc1ccc(O)cc1)C1Cc2c(ccc3ccc(=O)oc23)O1` (stereo not shown) [Angelmarin, 11-O-(p-hydroxy-cinnamoyl) columbianetin], the cytotoxicity is 0.01 µg/mL.
